Inhibition in vivo, IC50 and Inhibition data for 6 molecules are collected here from ChEMBL document CHEMBL1129151, “Stereoselective synthesis of lewis-associated trisaccharides as E-selectin inhibitors” (Bioorg Med Chem Lett, 1996).

Structures are written as SMILES. pIC50: −log10 of the molar value.

For one experiment, the system named is Mus musculus. Kind of experiment: In vivo ability to inhibit lipoteichoic acid (LTA)-induced neutrophil accumulation in murine pleurisy model at a dose of 30 mg/kg upon iv administration. The experiment is classed as functional. Particulars: for inhibition in vivo at 30 mg/kg: Mus musculus, iv; for Inhibition: 30 mg/kg.
The target in a further experiment is T1, E-selectin (Homo sapiens, UniProt P16581).
T1 sequence (P16581 whole entry): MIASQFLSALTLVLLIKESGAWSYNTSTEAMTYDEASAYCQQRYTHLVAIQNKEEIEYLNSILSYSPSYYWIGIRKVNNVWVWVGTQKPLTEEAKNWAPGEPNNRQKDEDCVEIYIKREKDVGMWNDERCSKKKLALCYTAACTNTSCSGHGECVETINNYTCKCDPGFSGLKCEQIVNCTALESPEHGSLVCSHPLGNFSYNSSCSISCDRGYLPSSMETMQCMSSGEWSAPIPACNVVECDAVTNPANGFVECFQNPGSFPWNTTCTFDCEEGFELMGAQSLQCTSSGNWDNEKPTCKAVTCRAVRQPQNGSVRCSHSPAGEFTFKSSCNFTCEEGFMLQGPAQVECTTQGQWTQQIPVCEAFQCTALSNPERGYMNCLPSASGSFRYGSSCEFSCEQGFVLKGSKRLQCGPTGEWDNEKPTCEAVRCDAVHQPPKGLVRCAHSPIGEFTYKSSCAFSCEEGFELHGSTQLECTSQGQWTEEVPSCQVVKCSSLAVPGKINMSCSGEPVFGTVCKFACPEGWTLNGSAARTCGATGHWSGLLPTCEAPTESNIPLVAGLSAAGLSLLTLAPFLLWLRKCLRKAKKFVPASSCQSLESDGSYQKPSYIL
The experiment in a line: In vitro ability to inhibit the adhesion of HL-60 cells to purified recombinant human Selectin E. The experiment is classed as cell-based.

For the molecule `CCO[C@@H]1O[C@@H](CO)[C@@H](O[C@@H]2O[C@@H](CO)[C@H](O)C(O)[C@@H]2O)C(O[C@@H]2O[C@@H](C)[C@@H](O)[C@H](O)[C@@H]2O)[C@@H]1NC(=O)c1ccc2ccccc2c1` (single isomer, unassigned), at 30 mg/kg the inhibition in vivo in the experiment on Mus musculus was 3%. Moreover, at E-selectin, the pIC50 (as a rule, −log10 of the IC50, conventionally taken in molar units) was less than 2.18.

In the case of `CCO[C@@H]1O[C@@H](CO)[C@@H](O[C@@H]2O[C@@H](CO)[C@H](O)C(O)[C@@H]2O)C(O[C@@H]2O[C@@H](C)[C@@H](O)[C@H](O)[C@@H]2O)[C@@H]1NC(C)=O` (single isomer, unassigned), in the experiment on Mus musculus, the inhibition in vivo (usually the change of the read-out against control, counted positive when it falls) at 30 mg/kg came out at 31%. Besides, the pIC50 at E-selectin is less than 2.18.

For `CCO[C@@H]1O[C@@H](CO)[C@@H](O[C@@H]2O[C@H](C)[C@H](O)[C@H](O)[C@@H]2O)[C@H](O[C@@H]2O[C@@H](CO)[C@H](O)[C@H](O)[C@@H]2O)[C@@H]1NC(C)=O` (stereo in doubt; 1), in the experiment on Mus musculus, the Inhibition (commonly the change of the read-out against control, counted positive when it falls) was 37%. Also, the pIC50 at E-selectin is less than 2.18.

Regarding `CCO[C@@H]1O[C@@H](CO)[C@@H](O[C@@H]2O[C@@H](C)[C@H](O)[C@H](O)[C@@H]2O)[C@H](O[C@@H]2O[C@@H](CO)[C@H](O)[C@H](O)[C@@H]2O)[C@@H]1NC(=O)c1ccc2ccccc2c1` (stereo in doubt; 2), the inhibition in vivo at 30 mg/kg with Mus musculus worked out at 49%. Moreover, at E-selectin, the pIC50 was less than 2.18.

On to `CCO[C@@H]1O[C@@H](CO)[C@@H](O[C@@H]2O[C@H](C)[C@H](O)[C@H](O)[C@@H]2O)[C@H](O[C@@H]2O[C@@H](CO)[C@H](O)[C@H](O)[C@@H]2O)[C@@H]1NC(C)=O` (stereo in doubt; 3), for which the inhibition in vivo at 30 mg/kg in the experiment with Mus musculus was found to be 51%. Moreover, at E-selectin, the pIC50 is 2.85.

As to `CCO[C@@H]1O[C@@H](CO)[C@@H](O[C@@H]2O[C@@H](C)[C@H](O)[C@H](O)[C@@H]2O)[C@H](O[C@@H]2O[C@@H](CO)[C@H](O)[C@H](O)[C@@H]2O)[C@@H]1NC(=O)c1ccc2ccccc2c1` (stereo in doubt; 4), the Inhibition in the experiment with Mus musculus is 62%. At E-selectin, the pIC50 was 2.70.
